# Laboratory results as given in patent publication US20210145768A1, “MODULATING IMMUNE RESPONSE VIA TARGETING OF OLFACTORY RECEPTOR ACTIVITY” (La Jolla Institute for Allergy and Immunology, priority 2018, published 2021).
# Columns and labels:
# Olfr2 [1] = molecular target: T1, Olfr2 (Mus musculus, UniProt Q9QWU6); test: IL-1β production in LPS-primed mouse BMDMs; type: cell-based; parameters: Olfr2 expression was confirmed at the protein level on F4/80^+ vascular macrophages; from tissue; host or cells: explanted whole aortas, digested aortic cell suspensions (F4/80+ vascular macrophages) and blood monocytes of Apoe-/- C57BL/6J mice; living Apoe-/- mice for the in vivo study
# T1 sequence (Q9QWU6 1-327): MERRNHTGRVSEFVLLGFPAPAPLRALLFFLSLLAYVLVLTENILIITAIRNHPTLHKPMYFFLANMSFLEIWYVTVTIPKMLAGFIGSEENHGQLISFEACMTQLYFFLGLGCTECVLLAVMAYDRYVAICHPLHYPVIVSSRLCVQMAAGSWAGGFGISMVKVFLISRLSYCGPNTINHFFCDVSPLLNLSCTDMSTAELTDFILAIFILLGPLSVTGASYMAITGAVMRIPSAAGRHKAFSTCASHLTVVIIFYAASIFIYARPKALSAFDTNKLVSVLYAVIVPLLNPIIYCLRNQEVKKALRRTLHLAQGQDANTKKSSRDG
# Method: Macrophages are known producers of one of the most prominent cytokines driving atherosclerosis, IL-1β^29. IL-1β production and secretion requires assembly of the inflammasome, a cytoplasmic complex containing several proteins that serves as a molecular platform for activation of the cysteine protease caspase^30,31. To test whether octanal induced IL-1β secretion in macrophages, BMDMs were primed with low-dose LPS (50 ng/mL) for 18 h followed by exposure to octanal alone or together with citral. IL-1β protein in the supernatant was quantified by a cytokine bead array. Data are presented as mean±SEM. *p<0.05, **p<0.01, ***p<0.005, ****p<0.001. p calculated by One-Way ANOVA test, Tukey's multiple comparisons test and unpaired t-test.
# Mouse BMDMs and human MDMs were pretreated with LPS (50 ng/mL) or left untreated for 18 h at 37° C. and 5% CO2. […]
# Supernatants of stimulated cells and aortic tissue were analyzed by BD CBA Flex Sets (BD Biosciences) for mouse TNFα, CCL2, CCL4, IL-1β, or human TNF, IL6, and IL-1β according to the manufacturer's protocol. Samples were analyzed with LSR-II (BD Biosciences). Data was acquired with FACSDiva software (BD Biosciences) and analyzed with FCAP array software 3.0 (BD Biosciences).
# Olfr2 [2] = molecular target: T1, Olfr2; test: Intracellular TNF staining in vascular macrophages and blood monocytes (flow cytometry); type: cell-based; parameters: Olfr2 expression was confirmed at the protein level on F4/80^+ vascular macrophages; from tissue; host or cells: explanted whole aortas, digested aortic cell suspensions (F4/80+ vascular macrophages) and blood monocytes of Apoe-/- C57BL/6J mice; living Apoe-/- mice for the in vivo study; conditions: octanal
# Method: To assess the functional properties of Olfr2 in monocytes, cells were enriched form Apoe−/− mice blood by the negative selection. Purified monocytes were then incubated as described above. TNF expression (TNF-PE) was evaluate by intracellular staining protocol by flow cytometry. Classical and non-classical monocytes were divided as previously described (Live, CD115+, LyC6+, and LyC6− respectively). […] Data are presented as means±SEM. *p<0.05, **p<0.01, ***p<0.005, ****p<0.001. p calculated by One-Way ANOVA test, Tukey's multiple comparisons test.
# Whole aortas and mouse blood leukocytes were incubated in culture medium with Oct, (10 μM), LPS, (500 ng/mL) alone or combined (LPS+Oct) for 12h at 37° C. and 5% CO2. The protein transport inhibitor cocktail 1× (eBioscience) was added for whole 12h in the whole aorta samples and for the last 6 hours in the mouse blood leukocyte samples. […]
# Cells were then washed, fixed, permeabilized applying the Intracellular Fixation and Permeabilization Buffer Set (eBioscience), and stained with mouse anti-TNF-PE (eBioscience). Samples were analyzed with LSR-II (BD Biosciences). Data was acquired with FACSDiva software (BD Biosciences) and analyzed with FlowJo software (Treestar Inc).
Structure (SMILES),"octanal-induced IL-1β release, mouse BMDMs (Olfr2 [1]; LPS priming, octanal 10 μM + citral 100 μM)",TNF expression in Ly6C+ and Ly6C− blood monocytes (Olfr2 [2]),"release of IL-1β into the supernatant, mouse BMDMs (Olfr2 [1]; LPS 50 ng/mL 18 h priming, then octanal 10 μM)"
CC(C)=CCCC(C)=CC=O [citral],inhibited,–,–
CCCCCCCC=O [octanal],–,boosted,strongly increased
